In patent US20120022143A1, “RNA Interference Mediated Inhibition of the Thymic Stromal Lymphopoietin (TSLP) Gene Expression Using Short Interfering Nucliec Acid (siNA)” (Merck Sharp & Dohme Corp, priority 2009, published 2012):
[invAb] = inverted abasic unit; d = 2'-deoxy (DNA); m = 2'-O-methyl; r = 2'-OH (RNA); f = 2'-fluoro

Legend:
[1] = system: mTSLP mRNA; experiment: Initial screening: mouse TSLP mRNA knock-down by RT-PCR (Taqman) after RNAiMax transfection of NIH 3T3 cells; type: cell-based; conditions: 10 nM siNA, 24 hrs post-transfection, mean ± s.d., summary from 2 screens
Protocol: (§1) All cells were obtained from ATCC (Manassas, Va.) unless otherwise indicated. Cells were grown and transfected under standard conditions, which are detailed below for each cell line.
NIH 3T3 (murine; ATCC cat#CRL-1658): Cells were cultured at 37° C. in the presence of 5% CO2 and grown in Dulbecco's modified Eagle's medium (DMEM) with 4 mM L-glutamine adjusted to contain 1.5 g/L sodium bicarbonate and 4.5 g/L glucose and supplemented with fetal bovine serum at a final concentration of 10% and 100 μg/mL of streptomycin and 100 U/mL penicillin.
(§2) All transfections were performed using RNAiMax (Invitrogen Cat# 13778-150) as per the manufacturer's instructions.
(§3) Both human and murine cell lines were transfected in the similar fashion. Cells were plated in all wells of a tissue-culture treated, 96-well plate at a final count of 5,000 cells/well in […], of appropriate culture media. Cells were cultured for 24 hours after plating at 37° C. in the presence of 5% CO2.
(§4) After 24 hours, complexes containing siNA and RNAiMax were created as follows: A solution of RNAiMax diluted 33-fold in OPTI-MEM was prepared. In parallel, solutions of the siNAs for testing were prepared to a final concentration of 120 nM in OPTI-MEM. After incubation of RNAiMax/OPTI-MEM solution at room temperature for 5 min, an equal volume of the siNA solution and the RNAiMax solution were added together for each of the siNAs.
(§5) This solution was incubated at room temperature for 20 minutes. After incubation, 20 uL of the solution was added to each of the relevant wells.
(§6) The final concentration of siNA in each well was 10 nM and the final volume of RNAiMax in each well was 0.3 ul.
(§7) The time of incubation with the RNAiMax-siNA complexes was 24 hours, unless otherwise indicated. There was no change in media between the transfection and harvesting of the cells unless otherwise indicated.
(§8) RNA was extracted from a 96-well plate using the TaqMan® Gene Expression Cells-to-CT™ Kit (Cat# 4399002) with a modified protocol. Briefly, a 60 uL (1 plate) or 110 uL (2 plates) of the Lysis Solution with DNase I was dispensed into each well of the Lysis Buffer Plate (twin.tec full skirt plate). The lysis buffer and stop plates were stored at 4° C. until the cells were washed.
(§9) The plate was spun at 1100 rpm for 5 minutes. The culture medium was aspirated and discarded from the wells of the culture plate. The lysis was performed automatically using a BioMek FX instrument and method. After the Biomek method was completed, the lysis plate was incubated for 2 min. at room temperature. The lysis plate can be stored for 2 hours at 4° C., or at −20° C. or −80° C. for two months.
(§10) Each well of the reverse transcription plate required 10 uL of 2× reverse transcriptase Buffer, luL of 20× reverse transcription enzyme and 2 uL of nuclease-free water. The reverse transcription master mix was prepared by mixing 2× reverse transcription buffer, 20× reverse transcription enzyme mix, and nuclease-free water. 13 uL of the reverse transcription master mix was dispensed into each well of the reverse transcription plate (semi-skirted). A separate reverse transcription plate was prepared for each cell plate. The plate was loaded onto a Biomek NX or Biomek FX Dual-96 and the Biomek method was run. The program is programmed to automatically added 7 uL of lysate from the cell lysis procedure described above into each well of the reverse transcription plate. The plate is sealed and spun on a centrifuge (1000 rpm for 30 seconds) to settle the contents to the bottom of the reverse transcription plate. The plate is placed in a thermocycler at 37° C. for 60 min, 95° C. for 5 min, and 4° C. until the plate is removed from the thermocycler. Upon removal, if not used immediately, the plate was frozen at −20° C.
A series of probes and primers were used to detect the various mRNA transcripts of the genes of TSLP, IL-8 and GAPDH in human cell lines. […]

[2] = system: TSLP mRNA; experiment: Initial screening: TSLP mRNA knock-down by RT-PCR (Taqman) after RNAiMax transfection of NHLF cells; type: cell-based; conditions: 10 nM siNA, human NHLF cells, 24 hrs post-transfection, relative to non-targeting control, normalized to GAPDH; mean ± s.d. from 2 experiments
Protocol: as §1
NHLF (human; Lonza cat# CC-2512): Cells were cultured at 37° C. in the presence of 5% CO2 and grown Fibroblast Basal Medium (Lonza cat# CC-3β2) supplemented growth factors (provided with the kit) and 100 μg/mL of streptomycin and 100 U/mL penicillin.
as §2, §3, §4, §5, §6, §7, §8, §9, §10
A series of probes and primers were used to detect the various mRNA transcripts of the genes of TSLP, IL-8 and GAPDH in human cell lines. All the Taqman probes and primers for the experiments here-in described were supplied as pre-validated sets by Applied Biosystems, Inc. (see Table 2). […]

Row | Substance | % KD mTSLP NIH3T3 [1] [%] | % KD TSLP [2]
1 | 25458-DC: siNA duplex: sense B GuAGAAAAAAAAAuuAAAA TTB (SEQ ID NO: 99), antisense UUUuAAuuuuuuuuucuAcUU (SEQ ID NO: 100) (sense GUAGAAAAAAAAAUUAAAATT; antisense UUUUAAUUUUUUUUUCUACUU; sense: sugars from the 5' end d1 f1 d11 f2 d6, [invAb] at 5' end, 3' end, backbone not given here; antisense: sugars from the 5' end rrrfmmfffffffffffmfmm, backbone not given here) | 21.6 ± 0.5 | 45 ± 9.9%
2 | 25459-DC: siNA duplex: sense B uGcccAGGcuAcccuGAAA TTB (SEQ ID NO: 101), antisense UUUcAGGGuAGccuGGGcAUU (SEQ ID NO: 102) (sense UGCCCAGGCUACCCUGAAATT; antisense UUUCAGGGUAGCCUGGGCAUU; sense: DNA at AGT, 2'-fluoro at CU, [invAb] at 5' end, 3' end, backbone not given here; antisense: sugars from the 5' end rrrfmmmmfmmfffmmmfmmm, backbone not given here) | 15.7 ± 1.6 | −6 ± 27^ %
3 | 25460-DC: siNA duplex: sense B GucuGAAucAAAccucACA TTB (SEQ ID NO: 103), antisense UGUGAGGuuuGAuucAGAcUU (SEQ ID NO: 104) (sense GUCUGAAUCAAACCUCACATT; antisense UGUGAGGUUUGAUUCAGACUU; sense: sugars from the 5' end dfffdddffdddffffddddd, [invAb] at 5' end, 3' end, backbone not given here; antisense: sugars from the 5' end rrrmmmmfffmmfffmmmfmm, backbone not given here) | 40.8 ± 1.4 | −7 ± 10.7%
4 | 25461-DC: siNA duplex: sense B GGGcuAAcuuAcAAcuuuu TTB (SEQ ID NO: 105), antisense AAAAGuuGuAAGuuAGcccUU (SEQ ID NO: 106) (sense GGGCUAACUUACAACUUUUTT; antisense AAAAGUUGUAAGUUAGCCCUU; sense: DNA at AGT, 2'-fluoro at CU, [invAb] at 5' end, 3' end, backbone not given here; antisense: sugars from the 5' end rrrmmffmfmmmffmmfffmm, backbone not given here) | −17.2 ± 3.6 | −48 ± 56.1%
5 | 25462-DC: siNA duplex: sense B GGGcuAAGuucGAGcAAAu TTB (SEQ ID NO: 107), antisense AUUuGcucGAAcuuAGcccUU (SEQ ID NO: 108) (sense GGGCUAAGUUCGAGCAAAUTT; antisense AUUUGCUCGAACUUAGCCCUU; sense: DNA at AGT, 2'-fluoro at CU, [invAb] at 5' end, 3' end, backbone not given here; antisense: sugars from the 5' end rrrfmfffmmmfffmmfffmm, backbone not given here) | −9.5 ± 28.7 | 23 ± 16.4%
6 | 25463-DC: siNA duplex: sense B cGAGuAuuAuAcucucAAu TTB (SEQ ID NO: 109), antisense AUUGAGAGuAuAAuAcucGUU (SEQ ID NO: 110) (sense CGAGUAUUAUACUCUCAAUTT; antisense AUUGAGAGUAUAAUACUCGUU; sense: DNA at AGT, 2'-fluoro at CU, [invAb] at 5' end, 3' end, backbone not given here; antisense: sugars from the 5' end rrrmmmmmfmfmmfmfffmmm, backbone not given here) | 41.5 ± 1.4 | 19 ± 33.3%
7 | 25464-DC: siNA duplex: sense B ccAGAAuAAAAuuAGcuuu TTB (SEQ ID NO: 111), antisense AAAGcuAAuuuuAuucuGGUU (SEQ ID NO: 112) (sense CCAGAAUAAAAUUAGCUUUTT; antisense AAAGCUAAUUUUAUUCUGGUU; sense: DNA at AGT, 2'-fluoro at CU, [invAb] at 5' end, 3' end, backbone not given here; antisense: sugars from the 5' end rrrmffmmffffmffffmmmm, backbone not given here) | 89.2 ± 1.1 | 3 ± 39%
8 | 25465-DC: siNA duplex: sense B cuGcuAuGAAAAucucuAu TTB (SEQ ID NO: 113), antisense AUAGAGAuuuucAuaGcAGUU (SEQ ID NO: 114) (sense CUGCUAUGAAAAUCUCUAUTT; antisense AUAGAGAUUUUCAUAGCAGUU; sense: DNA at AGT, 2'-fluoro at CU, [invAb] at 5' end, 3' end, backbone not given here; antisense: RNA at 1, 2, 3, 2'-O-methyl at 4, 5, 6, 7, 13, 16, 18, 19, 20, 21, 2'-fluoro at 8, 9, 10, 11, 12, 14, 17, other sugars and backbone not given here) | 48.6 ± 2.2 | 23 ± 4.8%
9 | 25466-DC: siNA duplex: sense B cAGAAGGGAuucuuAAcuu TTB (SEQ ID NO: 115), antisense AAGuuAAGAAucccuucuGUU (SEQ ID NO: 116) (sense CAGAAGGGAUUCUUAACUUTT; antisense AAGUUAAGAAUCCCUUCUGUU; sense: DNA at AGT, 2'-fluoro at CU, [invAb] at 5' end, 3' end, backbone not given here; antisense: sugars from the 5' end r3 f2 m5 f8 m3, backbone not given here) | −17.8 ± 28.5 | 38 ± 25^ %
10 | 25467-DC: siNA duplex: sense B cAAGAGccuuGcAcAucuA TTB (SEQ ID NO: 117), antisense UAGAuGuGcAAGGcucuuGUU (SEQ ID NO: 118) (sense CAAGAGCCUUGCACAUCUATT; antisense UAGAUGUGCAAGGCUCUUGUU; sense: DNA at AGT, 2'-fluoro at CU, [invAb] at 5' end, 3' end, backbone not given here; antisense: sugars from the 5' end rrrmfmfmfmmmmfffffmmm, backbone not given here) | −31 ± 7.4 | −13 ± 31.7%
11 | 25468-DC: siNA duplex: sense B uGcuGAAuAAAGuAAuucu TTB (SEQ ID NO: 119), antisense AGAAuuAcuuuAuucAGcAUU (SEQ ID NO: 120) (sense UGCUGAAUAAAGUAAUUCUTT; antisense AGAAUUACUUUAUUCAGCAUU; sense: DNA at AGT, 2'-fluoro at CU, [invAb] at 5' end, 3' end, backbone not given here; antisense: sugars from the 5' end rrrmffmffffmfffmmfmmm, backbone not given here) | 32.2 ± 15.2 | 30 ± 12.9%
